Reference: patent US10799590B2, “Compositions containing a bitter tastant and at least one sophorolipid, and methods of reducing bitter taste attributed to a bitter tastant in an edible composition” (The United States of America, as Represented by the …, priority 2015, dated 2020)
Entries after “also recorded” stand apart in the source; their conditions may differ.

Experiments:
[1] = tested on: chorda tympani nerve of wild-type B6 mice; assay: Chorda tympani whole-nerve responses to lingual taste stimuli, wild-type B6 mice; format: in vivo; conditions: lingual application (FIG. 6B, 7)
Description: (§1) Mouse model for sweet property and bitter-masking assay. Recordings of chorda tympani (CT) whole-nerve responses: All protocols involving animals were approved by the Institutional Animal Care and Use Committees at the Monell Center prior to the experiments. The study was performed with mice from two strains: C57BL/6J inbred strain (B6; Jackson Laboratory, Bar Harbor, Me.) bearing the wild-type Tas1r3 allele was used as the control, and the C57BL/6J-Tas1r3^tm1Rjm “gene-knockout” strain (T1R3-KO) lacking the entire T1R3 coding region and devoid of T1R3 protein ([…]., et al., Science, 301: 850-853 (2003)). Afferent signals from taste cells are relayed to the brain via three major gustatory nerves: the chorda tympani, glossopharyngeal, and greater superficial petrosal. […] Neural responses resulting from chemical stimulations of the tongue were fed into an amplifier (Grass Instruments, West Warwick, R.I.) and monitored on an oscilloscope and an audio monitor. Whole-nerve responses were integrated with a time constant of 1.0 s and recorded using a computer for later analysis using a PowerLab system (PowerLab/sp4; AD Instruments, Colorado Springs, Colo.). […] To analyze nerve responses to each stimulus, the magnitudes of integrated responses at 5, 10, 15, 20, and 25 s after stimulus onset were measured and averaged. […]

T1R3 = assay: Chorda tympani whole-nerve responses to lingual taste stimuli, T1R3-KO mice; format: in vivo; conditions: lingual application (FIG. 6A, 7)
Description: as §1

## OC[C@H]1O[C@@H](O[C@@H]2[C@@H](O)[C@H](O)[C@@H](CO)O[C@H]2O)[C@H](O)[C@@H](O)[C@@H]1O [Sophorose, 2-O-β-D-glucopyranosyl-β-D glucopyranose]
[1]
  chorda tympani responses: present
T1R3
  chorda tympani responses: serious deficit; also recorded: nearly absent
